The text below walks through data of US6902726B1, “Reduction of odor gases from waste using plant-derived oils” (The United States of America as represented by the …, priority 2001, dated 2005).

Data set [1] concerns Salmonella typhimurium. The conditions noted are these: pure culture system; Helander et al.; cited from earlier work.
The test system of data set [2] is stored swine waste. The experiment in a line: VFA production from swine waste in open jars. The class given is cell-based. Here is the method:
A 15-ml waste sample was collected from each flask. The sample was mixed with 15 ml of 0.5 M H2SO4, centrifuged at 2000×g for 20 min at 4° C., and stored at −20° C. until analyzed [Varel, V. H. et al. (1999), J Anim Sci 77:1162-1168]. L-Lactate concentrations were determined with a membrane-immobilized system involving lactate oxidase (Model 27, Yellow Springs Instrument Co., Yellow Springs, Ohio, USA). Short-chain volatile fatty acids (VFAs; acetate, propionate, butyrate, valerate, isobutyrate, isovalerate) and aromatic compounds (cresol, indole, skatole, 4-ethylphenol, phenol) were determined in an aliquot from the original acidified sample. After thawing, the sample was centrifuged at 5° C., 10,000×g for 5 min. A 0.5 ml aliquot of the supernatant was combined with an internal standard, ethyl butyrate (0.25 mM final concentration), the sample was acidified with 0.4 ml of 3 M HC1, 0.8 ml ethyl ether was added, the sample was shaken vigorously for 1 min, and centrifuged at 5° C., 16,000×g for 1 min, and the ether phase was analyzed. […] Aromatic, VFAs, thymol and carvacrol were analyzed with a Hewlett Packard 6890 gas chromatograph equipped with a flame ionization detector and a Hewlett Packard 5973 mass selective detector. […] Data were analyzed as a split-plot in time with the GLM procedure of (SAS). […]

In data set [3] the test system is E. coli O157:H7. The conditions noted are these: cited from earlier work; for concentration that will kill E. coli O157:H7: Kim et al.; for minimum inhibitory concentration: pure culture system, Helander et al.
A short description of data set [4]: recovery of added oil from liquid and solid fractions of swine waste, sealed flasks. The format is physicochemical. As to the method:
Swine waste was processed similarly to the method described in Example 1. Fecal waste was randomly collected within 15 min of being excreted from animals fed a finishing diet of 85% corn and 11% soybean meal. Swine urine was collected from catheterized animals. Feces, urine, and distilled water in the ratio 50:35:15 were blended (Waring Inc., New Hartford, Conn.) for 1 min. Four replicate samples were obtained from this slurry and analyzed for various parameters and were considered as time 0. […] Gas volume and composition were analyzed in these flasks (anoxic slurry).
A 15-ml waste sample was collected from each flask. The sample was mixed with 15 ml of 0.5 M H2SO4, centrifuged at 2000×g for 20 min at 4° C., and stored at −20° C. until analyzed [Varel, V. H. et al. (1999), J Anim Sci 77:1162-1168]. L-Lactate concentrations were determined with a membrane-immobilized system involving lactate oxidase (Model 27, Yellow Springs Instrument Co., Yellow Springs, Ohio, USA). Short-chain volatile fatty acids (VFAs; acetate, propionate, butyrate, valerate, isobutyrate, isovalerate) and aromatic compounds (cresol, indole, skatole, 4-ethylphenol, phenol) were determined in an aliquot from the original acidified sample. […] Data were analyzed as a split-plot in time with the GLM procedure of (SAS).

Data set [5] relates to stored swine waste. Briefly: fermentation of stored swine waste in anoxic flasks (gas, VFA, L-lactate, pH). The format is cell-based. The conditions noted are these: for methane detected: 13.3 mM, after 20 days; for gas production / production of propionate / production of valerate, isovalerate, isobutyrate and cresol: carvacrol or thymol at 13.3 or 16.75 mM, or combination to equal 16.75 mM; for lactate accumulation: oil added to swine waste; for concentration required to suppress most fermentation activity: swine waste slurry, same ratio (50:35:15). As to the method: Swine waste was processed similarly to the method described in Example 1. Fecal waste was randomly collected within 15 min of being excreted from animals fed a finishing diet of 85% corn and 11% soybean meal. Swine urine was collected from catheterized animals. Feces, urine, and distilled water in the ratio 50:35:15 were blended (Waring Inc., New Hartford, Conn.) for 1 min. Four replicate samples were obtained from this slurry and analyzed for various parameters and were considered as time 0. The waste slurry was divided into 500 ml aliquots and antimicrobial plant oils were added directly at the desired concentration, with one exception, in which carvacrol was dissolved 1:1 v:v in 95% ethanol, or 2 ml carvacrol/ethanol addition in these 500 ml slurries. The slurry was blended 1 min to provide a homogenous mixing of the antimicrobial oils and poured into 1-liter Erlenmeyer flasks, which were gassed with nitrogen (also after each sampling), sealed with a rubber stopper and left stationary at ambient temperature (25° C.). Treatments were in duplicate, and the contents of the flasks were gently swirled before being sampled at the days indicated in FIGS. 3-5. Gas volume and composition were analyzed in these flasks (anoxic slurry).
Head space gas was measured by displacement of a water-lubricated glass piston in a 50 ml syringe [Miller, T. L. et al. (1974), Appl Environ 27:985-987]. A 20-gauge needle with a Leurlok was inserted through the stopper, and a three-way valve was attached to the needle to allow gas volume to be periodically determined. Methane and hydrogen were analyzed as previously described [Varel, V. H. et al. (2000), Curr Microbiol 40:392-397].
A 15-ml waste sample was collected from each flask. The sample was mixed with 15 ml of 0.5 M H2SO4, centrifuged at 2000×g for 20 min at 4° C., and stored at −20° C. until analyzed [Varel, V. H. et al. (1999), J Anim Sci 77:1162-1168]. L-Lactate concentrations were determined with a membrane-immobilized system involving lactate oxidase (Model 27, Yellow Springs Instrument Co., Yellow Springs, Ohio, USA). Short-chain volatile fatty acids (VFAs; acetate, propionate, butyrate, valerate, isobutyrate, isovalerate) and aromatic compounds (cresol, indole, skatole, 4-ethylphenol, phenol) were determined in an aliquot from the original acidified sample. After thawing, the sample was centrifuged at 5° C., 10,000×g for 5 min. A 0.5 ml aliquot of the supernatant was combined with an internal standard, ethyl butyrate (0.25 mM final concentration), the sample was acidified with 0.4 ml of 3 M HC1, 0.8 ml ethyl ether was added, the sample was shaken vigorously for 1 min, and centrifuged at 5° C., 16,000×g for 1 min, and the ether phase was analyzed. To determine carvacrol and thymol concentrations, an aliquot of the original acidified sample which was not centrifuged, was treated as indicated above and extracted with ether twice. […] Aromatic, VFAs, thymol and carvacrol were analyzed with a Hewlett Packard 6890 gas chromatograph equipped with a flame ionization detector and a Hewlett Packard 5973 mass selective detector. Compounds were separated on a 30 m×0.32 mm diameter (0.5 μm film thickness) Innowax PEG column using the following program parameters: flow rate was 1.9 ml min^−1, initial temperature was 140° C., initial time was 3 min with a temperature ramp of 7.5° C. min^−1, with a final temperature of 230° C. for 4 min. Injector and detector temperatures were 250° C. Data were analyzed as a split-plot in time with the GLM procedure of (SAS).

Data set [6] deals with stored cattle waste. The experiment in a line: fermentation of stored cattle waste in open wide-mouthed jars (VFA, butyrate). The format is cell-based. The conditions noted are these: for production of short-chain volatile fatty acids: 13.3 mM individually, 56 days, versus combination of the two oils (6.7 mM each); for concentration that suppressed essentially all fermentation activity: cattle waste slurry of feces, urine and water (50:35:15). As to the method:
Waste was collected and processed as in Example 1. The waste slurry was divided into 1-liter aliquots and poured into wide-mouth (10 cm) jars (17 cm tall, 13.5 cm diameter, 1.6-liters). The plant oils (carvacrol, thymol and α-pinene) were added to the slurry without stirring or mixing. Plastic lids provided with the jars were used to cover approximately 90% of the jar opening to prevent moisture loss over the 56-day experimental period. A wide mouth pipette was inserted into the slurry from top to bottom at which time slurry contents were simultaneously withdrawn. Total VFA production and butyrate production were measured as described in Example 1.

In data set [7] the test system is total culturable anaerobic bacteria. Briefly: total culturable anaerobic bacteria in swine waste, open jars. The class given is cell-based. The conditions noted are these: 13.3 mM and 20 mM; within 2 days versus controls (P<0.05); sustained for 28 days. As to the method: (§1) Swine waste was collected and processed into a slurry as in Example 3. As in Example 2, the slurry was added to wide-mouth (10 cm) jars (17 cm tall, 13.5 cm in diameter, 1.6-liter volume) with the test antimicrobial additives, and plastic lids were placed to cover approximately 90% of the jar opening to prevent moisture loss over the experimental period. The sampling procedure was similar to that described above in Example 3, except no stirring or mixing occurred before the contents were sampled, and treatments were in triplicate.
(§2) Fecal coliforms were enumerated with 3 M Petrifilm Escherichia coli coliform count plates (3 M Microbiology Products, St. Paul, Minn.). Both of the carvacrol treatments reduced (P<0.05) the number of viable anaerobic bacteria in the waste within 2 days when compared to the controls (Table 2). This effect was sustained for 28 days. The initial decrease in the concentrations of anaerobic bacteria from day 0 to 2 in the control is presumably because VFAs increase in this batch system and become lethal to a select population of organisms.

Data set [8] concerns fecal coliforms. Briefly: fecal coliforms in swine waste, open jars. The format is cell-based. As to the method: as §1, §2
Data set [9] relates to stored cattle waste. Briefly: VFA and L-lactate production from cattle waste in anoxic flasks, eugenol versus thymol. The format is cell-based. Conditions: for L-lactate production: cattle waste, eugenol at all concentrations evaluated. Here is the method:
Waste was collected and processed as in Example 1. The waste slurry was divided into 500-ml aliquots and eugenol or thymol were added directly at the desired concentration. The slurry was blended 1 min to provide a homogeneous mixing of the antimicrobial oils and poured into a 1-liter Erlenmeyer flask, which was sealed with a rubber stopper and left stationary at ambient temperature (25° C.). Treatments were in triplicate, and the contents of the flask were gently swirled before being sampled at the times indicated. Short-chain volatile fatty acids and L-lactate in the flasks were determined as described in Example 1. […] This is a desirable effect in some cases because it rapidly lowers the pH which contributes to inhibiting the overall fermentation of the wastes, and more ammonia nitrogen will be retained in the wastes.

Structures are written as SMILES. Converted amounts (≈) assume the structure as drawn. Like-named read-outs stand apart in the source and are kept apart here.

Turning to `Cc1ccc(C(C)C)cc1O` [carvacrol], the minimum inhibitory concentration in data set [1] is 1000 µM (≈ 150 µg/mL). Also, the “effect of dissolving in ethanol on ability to inhibit VFA production” value in data set [2] (dissolved in ethanol before addition (P>0.05)) is “no effect”. In addition, the “production of VFAs” value in data set [2] (three concentrations (P<0.01), open jars) is “inhibited the production of VFAs”. Also, in data set [3], the “concentration that will kill E. coli O157:H7” value was 500 µg/mL and the minimum inhibitory concentration is 3000 µM (≈ 451 µg/mL). In data set [3] (value in brackets), the “concentration that will kill E. coli O157:H7” value is on record as 3.3 mM. Moreover, the “recoveries compared with thymol” value in data set [4] (sealed flasks) is reported as “similar”. In data set [5], the methane detected result was “Trace amounts”; the gas production result was “essentially stopped most gas production”; the production of propionate entry is recorded as “inhibited”; the “production of valerate, isovalerate, isobutyrate and cresol” value was “prevented any production”. In data set [5], the lactate accumulation entry is “accumulated” and the “concentration required to suppress most fermentation activity” value worked out at 16.75 mM. In data set [6], the “production of short-chain volatile fatty acids” value is “equally or slightly better” and the “concentration that suppressed essentially all fermentation activity” value worked out at 13.3 mM. Besides, in [7], the “number of viable anaerobic bacteria” value is reported as “reduced”. The fecal coliforms entry in data set [8] (13.3 mM, at 14 days) is “none were detected”. The fecal coliforms result in data set [8] (13.3 mM, within 2 days (P<0.01)) was “reduced”. For the same compound, the fecal coliforms result in [8] (20 mM, after 2 days) was “No fecal coliforms were detected”.
With `C=CCc1ccc(O)c(OC)c1` [eugenol], the “control of total VFA production compared to 2000 ppm (13.3 mM) thymol” value in [9] (2000 or 2500 ppm (13.3 or 16 mM), 42-day period) is on record as “equally or more effective”. In addition, the L-lactate production entry in [9] is reported as “stimulates L-lactate production”. Besides, the “inhibition of VFA production, dependence” value in data set [9] (various concentrations) is reported as “concentration dependent”.
In the case of `Cc1ccc(C(C)C)c(O)c1` [thymol], in data set [1], the minimum inhibitory concentration is 1000 µM (≈ 150 µg/mL). Besides, the L-lactate production result in data set [9] is “inhibits production of L-lactate”. Moreover, in data set [3], the minimum inhibitory concentration is 3000 µM (≈ 451 µg/mL). Further, the “thymol recovered from the liquid or supernatant fraction” value in data set [4] (% of added, swine waste) was “less than 25%”. For the same compound, in data set [5], the methane detected result is given as “Trace amounts”; the gas production result is listed as “essentially stopped most gas production”; the production of propionate result is on record as “inhibited”; the “production of valerate, isovalerate, isobutyrate and cresol” value is reported as “prevented any production”. In addition, in data set [5], the lactate accumulation result is “accumulated” and the “concentration required to suppress most fermentation activity” value was found to be 16.75 mM. Further, in data set [6], the “production of short-chain volatile fatty acids” value is listed as “equally or slightly better” and the “concentration that suppressed essentially all fermentation activity” value is on record as 13.3 mM.
